Measured values taken from PubChem BioAssay (NCI).
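A five-concentration, 48-hour dose response in 96-well plates underlies each endpoint, interpolated linearly between surrounding concentrations. TGI is the concentration that stops growth completely.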

Columns and labels:
Assay in all cases: DTP human tumour cell line panel, 48 h
786-0 renal = test system: 786-0 renal
A498 renal = test system: A498 renal
A549 NSCLC = test system: A549 NSCLC
ACHN renal = test system: ACHN renal
BT-549 breast = test system: BT-549 breast
CAKI-1 renal = test system: CAKI-1 renal
CCRF-CEM leukemia = test system: CCRF-CEM leukemia
COLO 205 colon = test system: COLO 205 colon
DU-145 prostate = test system: DU-145 prostate
EKVX NSCLC = test system: EKVX NSCLC
HCC-2998 colon = test system: HCC-2998 colon
HCT-116 colon = test system: HCT-116 colon
HCT-15 colon = test system: HCT-15 colon
HL-60(TB) leukemia = test system: HL-60(TB) leukemia
HOP-62 NSCLC = test system: HOP-62 NSCLC
HS 578T breast = test system: HS 578T breast
HT29 colon = test system: HT29 colon
IGROV1 ovarian = test system: IGROV1 ovarian
K-562 leukemia = test system: K-562 leukemia
KM12 colon = test system: KM12 colon
LOX IMVI melanoma = test system: LOX IMVI melanoma
M14 melanoma = test system: M14 melanoma
MALME-3M melanoma = test system: MALME-3M melanoma
MCF7 breast = test system: MCF7 breast
MDA-MB-231 breast = test system: MDA-MB-231 breast
MDA-MB-435 = test system: MDA-MB-435
MDA-N = test system: MDA-N
MOLT-4 leukemia = test system: MOLT-4 leukemia
NCI-H226 lung = test system: NCI-H226 lung
NCI-H23 lung = test system: NCI-H23 lung
NCI-H460 lung = test system: NCI-H460 lung
NCI-H522 lung = test system: NCI-H522 lung
OVCAR-3 ovarian = test system: OVCAR-3 ovarian
OVCAR-4 ovarian = test system: OVCAR-4 ovarian
OVCAR-5 ovarian = test system: OVCAR-5 ovarian
OVCAR-8 ovarian = test system: OVCAR-8 ovarian
PC-3 prostate = test system: PC-3 prostate
RPMI-8226 leukemia = test system: RPMI-8226 leukemia
SF-268 CNS = test system: SF-268 CNS
SF-295 CNS = test system: SF-295 CNS
SF-539 CNS = test system: SF-539 CNS
SK-MEL-2 melanoma = test system: SK-MEL-2 melanoma
SK-MEL-28 melanoma = test system: SK-MEL-28 melanoma
SK-MEL-5 melanoma = test system: SK-MEL-5 melanoma
SK-OV-3 ovarian = test system: SK-OV-3 ovarian
SN12C renal = test system: SN12C renal
SNB-19 CNS = test system: SNB-19 CNS
SNB-75 CNS = test system: SNB-75 CNS
SR leukemia = test system: SR leukemia
SW-620 colon = test system: SW-620 colon
T-47D breast = test system: T-47D breast
TK-10 renal = test system: TK-10 renal
U251 CNS = test system: U251 CNS
UACC-257 melanoma = test system: UACC-257 melanoma
UACC-62 melanoma = test system: UACC-62 melanoma
HOP-92 NSCLC = test system: HOP-92 NSCLC
NCI/ADR-RES ovarian = test system: NCI/ADR-RES ovarian
RXF 393 renal = test system: RXF 393 renal
UO-31 renal = test system: UO-31 renal

What does the source list for `COC1C(OC(=O)c2ccc(C)[nH]2)C(O)C(Oc2ccc3c(O)c(NC(=O)c4ccc(O)c(CC=C(C)C)c4)c(=O)oc3c2Cl)OC1(C)C` (configuration not stated)?
TGI (786-0 renal): 31.9 µM; TGI (A498 renal): 33 µM; TGI (A549 NSCLC): 91.7 µM; TGI (ACHN renal): 77.5 µM; TGI (BT-549 breast): 42.5 µM; TGI (CAKI-1 renal): 36.2 µM; TGI (CCRF-CEM leukemia): 58.9 µM; TGI (COLO 205 colon): 52.8 µM; TGI (DU-145 prostate): 75.4 µM; TGI (EKVX NSCLC): 61.9 µM; TGI (HCC-2998 colon): 33.2 µM; TGI (HCT-116 colon): 33.1 µM; TGI (HCT-15 colon): 38.1 µM; TGI (HL-60(TB) leukemia): > 100 µM; TGI (HOP-62 NSCLC): 33.4 µM; TGI (HS 578T breast): 61.9 µM; TGI (HT29 colon): 29.7 µM; TGI (IGROV1 ovarian): 39.2 µM; TGI (K-562 leukemia): > 100 µM; TGI (KM12 colon): 26.1 µM; TGI (LOX IMVI melanoma): 38.4 µM; TGI (M14 melanoma): 32.2 µM; TGI (MALME-3M melanoma): 34 µM; TGI (MCF7 breast): 54.2 µM; TGI (MDA-MB-231 breast): 49.4 µM; TGI (MDA-MB-435): > 100 µM; TGI (MDA-N): > 100 µM; TGI (MOLT-4 leukemia): 45.8 µM; TGI (NCI-H226 lung): 36.7 µM; TGI (NCI-H23 lung): 45.5 µM; TGI (NCI-H460 lung): 69.5 µM; TGI (NCI-H522 lung): 29.8 µM; TGI (OVCAR-3 ovarian): 43.6 µM; TGI (OVCAR-4 ovarian): 99.6 µM; TGI (OVCAR-5 ovarian): 33.2 µM; TGI (OVCAR-8 ovarian): 52 µM; TGI (PC-3 prostate): 29.3 µM; TGI (RPMI-8226 leukemia): 30.4 µM; TGI (SF-268 CNS): 57.4 µM; TGI (SF-295 CNS): 43.4 µM; TGI (SF-539 CNS): 38.1 µM; TGI (SK-MEL-2 melanoma): 27 µM; TGI (SK-MEL-28 melanoma): 32.9 µM; TGI (SK-MEL-5 melanoma): 35.6 µM; TGI (SK-OV-3 ovarian): 54.6 µM; TGI (SN12C renal): 53.2 µM; TGI (SNB-19 CNS): 30 µM; TGI (SNB-75 CNS): 72.9 µM; TGI (SR leukemia): 56.9 µM; TGI (SW-620 colon): 38 µM; TGI (T-47D breast): 36.5 µM; TGI (TK-10 renal): > 100 µM; TGI (U251 CNS): 26.8 µM; TGI (UACC-257 melanoma): > 100 µM; TGI (UACC-62 melanoma): 32.9 µM

`S=c1ncc(-c2cncc(-c3cnc(=S)[nH]c3)n2)c[nH]1` was tested. Which TGI (786-0 renal) did it give?
Its TGI is over 100 µM.

And the TGI (A498 renal)?
The TGI was over 100 µM.

What about the TGI (A549 NSCLC) of the same compound?
The TGI was over 100 µM.

And the TGI (ACHN renal)?
Its TGI is over 100 µM.

What about the TGI (BT-549 breast) of the same compound?
Its TGI is over 100 µM.

And the TGI (CAKI-1 renal)?
The TGI was over 100 µM.

What about the TGI (CCRF-CEM leukemia) of the same compound?
Its TGI is over 100 µM.

What about the TGI (COLO 205 colon) of the same compound?
Its TGI is over 100 µM.

And the TGI (DU-145 prostate)?
The TGI was over 100 µM.

What about the TGI (EKVX NSCLC) of the same compound?
Its TGI is over 100 µM.

What about the TGI (HCC-2998 colon) of the same compound?
Its TGI is over 100 µM.

What about the TGI (HCT-116 colon) of the same compound?
The TGI was over 100 µM.

What about the TGI (HCT-15 colon) of the same compound?
Its TGI is over 100 µM.

What about the TGI (HL-60(TB) leukemia) of the same compound?
Its TGI is over 100 µM.

And the TGI (HOP-92 NSCLC)?
The TGI was over 100 µM.

And the TGI (HS 578T breast)?
Its TGI is over 100 µM.

And the TGI (HT29 colon)?
Its TGI is over 100 µM.

What about the TGI (IGROV1 ovarian) of the same compound?
Its TGI is over 100 µM.

What about the TGI (K-562 leukemia) of the same compound?
The TGI was over 100 µM.

And the TGI (KM12 colon)?
The TGI was over 100 µM.

And the TGI (M14 melanoma)?
Its TGI is over 100 µM.

What about the TGI (MALME-3M melanoma) of the same compound?
Its TGI is over 100 µM.

And the TGI (MCF7 breast)?
The TGI was over 100 µM.

And the TGI (MDA-MB-231 breast)?
The TGI was over 100 µM.

And the TGI (MDA-MB-435)?
Its TGI is over 100 µM.

And the TGI (MDA-N)?
Its TGI is over 100 µM.

What about the TGI (MOLT-4 leukemia) of the same compound?
Its TGI is over 100 µM.

What about the TGI (NCI-H226 lung) of the same compound?
Its TGI is over 100 µM.

What about the TGI (NCI-H23 lung) of the same compound?
The TGI was over 100 µM.

What about the TGI (NCI-H460 lung) of the same compound?
The TGI was over 100 µM.

What about the TGI (NCI-H522 lung) of the same compound?
Its TGI is over 100 µM.

What about the TGI (NCI/ADR-RES ovarian) of the same compound?
The TGI was over 100 µM.

And the TGI (OVCAR-3 ovarian)?
The TGI was over 100 µM.

What about the TGI (OVCAR-4 ovarian) of the same compound?
Its TGI is over 100 µM.

And the TGI (OVCAR-5 ovarian)?
The TGI was over 100 µM.

And the TGI (OVCAR-8 ovarian)?
The TGI was over 100 µM.

And the TGI (PC-3 prostate)?
The TGI was over 100 µM.

What about the TGI (RPMI-8226 leukemia) of the same compound?
The TGI was over 100 µM.

What about the TGI (RXF 393 renal) of the same compound?
Its TGI is over 100 µM.

What about the TGI (SF-268 CNS) of the same compound?
Its TGI is over 100 µM.

What about the TGI (SF-295 CNS) of the same compound?
The TGI was over 100 µM.

What about the TGI (SF-539 CNS) of the same compound?
The TGI was over 100 µM.

What about the TGI (SK-MEL-2 melanoma) of the same compound?
Its TGI is over 100 µM.

What about the TGI (SK-MEL-28 melanoma) of the same compound?
Its TGI is over 100 µM.

What about the TGI (SK-MEL-5 melanoma) of the same compound?
The TGI was over 100 µM.

And the TGI (SK-OV-3 ovarian)?
Its TGI is over 100 µM.

And the TGI (SN12C renal)?
Its TGI is over 100 µM.

What about the TGI (SNB-19 CNS) of the same compound?
The TGI was over 100 µM.

And the TGI (SNB-75 CNS)?
The TGI was over 100 µM.

What about the TGI (SR leukemia) of the same compound?
Its TGI is over 100 µM.

What about the TGI (SW-620 colon) of the same compound?
Its TGI is over 100 µM.

And the TGI (T-47D breast)?
Its TGI is over 100 µM.

And the TGI (TK-10 renal)?
The TGI was over 100 µM.

What about the TGI (U251 CNS) of the same compound?
Its TGI is over 100 µM.

And the TGI (UACC-257 melanoma)?
Its TGI is over 100 µM.

And the TGI (UACC-62 melanoma)?
Its TGI is over 100 µM.

What about the TGI (UO-31 renal) of the same compound?
Its TGI is over 100 µM.
